Test [1] concerns DLD1-Chk2 cells. Briefly: Apoptosis and mitosis markers (Annexin-V, Pancaspase, phospho-Histone H3) and Z-VAD rescue in tet-induced cells. The test is classed as cell-based, human. Conditions: DLD1-tet-Chk2#17 cells, +tet six days. Here is the method: FIG. 2A is a graph showing the DNA contents of cells as measured by flow cytometry (upper panel) and the percentages of Annexin-V-positive cells and Pancaspase-positive cells determined by flow cytometric analysis (bottom panels). FIG. 2B is a photograph of fluorescent microscopy showing DLD1-tet-Chk2# 17 cells cultured in the presence or absence of tetracycline following staining with DePsipher Dye (Trevigen) and monitoring the intensity of the monomer ([…]) and aggregates ([…]) of DePsipher. FIG. 2C is a photograph of immunoblots showing DLD1-tet-Chk2 #17 cell lysates following tetracycline treatment. Lysates were prepared and subjected to immunoblotting with the antibodies indicated on the left. FIG. 2D is a series of graphs of flow cytometric analysis showing the DNA content, caspase activity and percentages of DLD1-tet-Chk2#17 cells undergoing apoptosis following treated with Z-VAD- or mock-treated (None) and cultured in the presence (+tet) or absence (−tet) of tetracycline for six days.
To investigate the effect of Chk2 expression on cell cycle progression, the cell cycle profiles of DLD1-Chk2 clones (#17 and #22) were analyzed after Chk2 induction by addition of tetracycline. […]

The subject of test [2] is DLD1-Chk2 clones (#17 and #22). Briefly: Cell cycle profile (DNA content by flow cytometry) after tetracycline induction of Chk2. The test is classed as cell-based, human. Background: A flow cytometer gives signals particle by particle.

Residues, ends and D or L forms follow the SMILES beside them. *: point of attachment. Cbz = O=C(OCc1ccccc1)*; CH2F = FC*

For the compound `CC(NC(=O)C(NC(=O)OCc1ccccc1)C(C)C)C(=O)NC(CC(=O)O)C(=O)CF` (stereo not drawn) [Z-VAD] (Cbz-Val-Ala-Asp-CH2F; configuration not given here), in test [1], the “rescue of Chk2-induced cell death” value was “partially rescued”.
For the compound `CN(C)[C@@H]1C(O)=C(C(N)=O)C(=O)[C@@]2(O)C(O)=C3C(=O)c4c(O)cccc4[C@@](C)(O)[C@H]3C[C@@H]12` [tetracycline], the “cell population with G2/M DNA content” value in test [2] (uninduced 20%) is recorded as 30-35%. Also, the “cell population with sub-G1 DNA content” value in test [2] (uninduced ~4%) was ~40%. Moreover, the “cell population with S DNA content” value in test [2] (uninduced ~25%) is on record as ~9%. Moreover, the “cell population with G1 DNA content” value in test [2] (uninduced ~52%) was ~25%.

For the origin of these results see US20060204993A1, “Methods and compositions for modulating CHK2 pathways and methods for screening for same” (priority 2005, published 2006).
